Where only a bound is given, the exact number is not on record here.

In the first assay the target is human NAMPT enzyme (His-hNAMPT) (Homo sapiens (Human), UniProt P43490). In words: NAMPT enzymatic inhibition assay (fluorescence, NADH product). The class given is biochemical. The note with it: [BPS]; read-out: NAMPT IC50 (μM) [BPS].
Chain of human NAMPT enzyme (His-hNAMPT) (P43490 whole entry): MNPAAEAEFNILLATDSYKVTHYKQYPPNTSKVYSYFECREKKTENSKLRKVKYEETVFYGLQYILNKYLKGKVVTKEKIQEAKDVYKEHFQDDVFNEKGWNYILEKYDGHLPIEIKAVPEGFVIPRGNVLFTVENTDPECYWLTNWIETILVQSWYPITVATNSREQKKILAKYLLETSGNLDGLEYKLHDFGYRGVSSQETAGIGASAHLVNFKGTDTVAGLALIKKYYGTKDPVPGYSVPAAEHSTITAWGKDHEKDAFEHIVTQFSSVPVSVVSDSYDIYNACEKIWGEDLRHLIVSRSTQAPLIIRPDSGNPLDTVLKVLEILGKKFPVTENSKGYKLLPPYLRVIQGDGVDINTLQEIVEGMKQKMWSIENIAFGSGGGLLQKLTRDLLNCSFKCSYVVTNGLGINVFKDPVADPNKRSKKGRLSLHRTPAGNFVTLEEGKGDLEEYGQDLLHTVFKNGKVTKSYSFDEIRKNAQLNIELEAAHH
A word on the IC50: it is the concentration that gives 50% inhibition. For `CC(C)(C)NC(=O)N1C[C@@H]2[C@@H](CCNC(=O)/C=C/c3ccc(N)nc3)[C@@H]2C1` [Example 293, (1R,5S,6s)-6-(2-((E)-3-(6-aminopyridin-3-yl)acrylamido)ethyl)-N-(tert-butyl)-3-azabicyclo[3.1.0]hexane-3-carboxamide], the IC50 fell in the range of 0.01 to 0.49 µM.

The assay is the same for the next values; noted with them: [HDB]; read-out: NAMPT IC50 (μM) [HDB].
Turning to `O=C(/C=C/c1cccnc1)NCC[C@@H]1[C@H]2CN(Cc3ncccn3)C[C@@H]12` [Example 294, (E)-3-(Pyridin-3-yl)-N-(2-((1R,5S,6s)-3-(pyrimidin-2-ylmethyl)-3-azabicyclo[3.1.0]hexan-6-yl)ethyl)acrylamide], the IC50 lay in the range of 0.01 to 0.49 µM.

Consider `O=C(/C=C/c1cccnc1)NCC[C@@H]1[C@H]2CN(CCc3ccccc3)C[C@@H]12` [Example 295, (E)-N-(2-((1R,5S,6s)-3-phenethyl-3-azabicyclo[3.1.0]hexan-6-yl)ethyl)-3-(pyridin-3-yl)acrylamide], for which the IC50 fell in the range of 0.01 to 0.49 µM.

For the compound `O=C(/C=C/c1cccnc1)NCC[C@@H]1[C@H]2CN(C(c3ccccc3)C(F)(F)F)C[C@@H]12` (stereo partly drawn) [Example 296, (E)-3-(pyridin-3-yl)-N-(2-((1R,5S,6s)-3-(2,2,2-trifluoro-1-phenylethyl)-3-azabicyclo[3.1.0]hexan-6-yl)ethyl)acrylamide], the IC50 was below 0.01 µM.

With `COc1ncc(F)c(N2C[C@@H]3[C@@H](CCNC(=O)/C=C/c4cccnc4)[C@@H]3C2)n1` [Example 297, (E)-N-(2-((1R,5S,6s)-3-(5-fluoro-2-methoxypyrimidin-4-yl)-3-azabicyclo[3.1.0]hexan-6-yl)ethyl)-3-(pyridin-3-yl)acrylamide], the concentration for half-maximal inhibition (IC50) was below 0.01 µM.

`O=C(/C=C/c1cccnc1)NCC[C@@H]1[C@H]2CN(Cc3cncnc3)C[C@@H]12` [Example 298, (E)-3-(pyridin-3-yl)-N-(2-((1R,5S,6s)-3-(pyrimidin-5-ylmethyl)-3-azabicyclo[3.1.0]hexan-6-yl)ethyl)acrylamide]: the IC50 was below 0.01 µM.

In the case of `O=C(/C=C/c1cccnc1)NCC[C@@H]1[C@H]2CN(c3ccnc(OC(F)F)c3)C[C@@H]12` [Example 299, (E)-N-(2-((1R,5S,6s)-3-(2-(difluoromethoxy)pyridin-4-yl)-3-azabicyclo[3.1.0]hexan-6-yl)ethyl)-3-(pyridin-3-yl)acrylamide], the IC50 is below 0.01 µM.

Take `O=C(/C=C/c1cccnc1)NCC[C@@H]1[C@H]2CN(Cc3ccccc3Cl)C[C@@H]12` [Example 300, (E)-N-(2-((1R,5S,6s)-3-(2-chlorobenzyl)-3-azabicyclo[3.1.0]hexan-6-yl)ethyl)-3-(pyridin-3-yl)acrylamide]: the IC50 is 0.01 to 0.49 µM.

Consider `O=C(/C=C/c1cccnc1)NCC[C@@H]1[C@H]2CN(Cc3cccc(Cl)c3)C[C@@H]12` [Example 301, (E)-N-(2-((1R,5S,6s)-3-(3-chlorobenzyl)-3-azabicyclo[3.1.0]hexan-6-yl)ethyl)-3-(pyridin-3-yl)acrylamide], for which the IC50 was below 0.01 µM.

Turning to `O=C(/C=C/c1cccnc1)NCC[C@@H]1[C@H]2CN(Cc3ccc(Cl)cc3)C[C@@H]12` [Example 302, (E)-N-(2-((1R,5S,6s)-3-(4-chlorobenzyl)-3-azabicyclo[3.1.0]hexan-6-yl)ethyl)-3-(pyridin-3-yl)acrylamide], the IC50 is 0.01 to 0.49 µM.

In the case of `CC(C)Oc1ncc(F)c(N2C[C@@H]3[C@@H](CCNC(=O)/C=C/c4cccnc4)[C@@H]3C2)n1` [Example 303, (E)-N-(2-((1R,5S,6s)-3-(5-fluoro-2-isopropoxypyrimidin-4-yl)-3-azabicyclo[3.1.0]hexan-6-yl)ethyl)-3-(pyridin-3-yl)acrylamide], the IC50 lay within 0.01 to 0.49 µM.

For `CN(C)c1ncc(F)c(N2C[C@@H]3[C@@H](CCNC(=O)/C=C/c4cccnc4)[C@@H]3C2)n1` [Example 304, (E)-N-(2-((1R,5S,6s)-3-(2-(dimethylamino)-5-fluoropyrimidin-4-yl)-3-azabicyclo[3.1.0]hexan-6-yl)ethyl)-3-(pyridin-3-yl)acrylamide], the IC50 is below 0.01 µM.

Turning to `O=C(/C=C/c1cccnc1)NCC[C@@H]1[C@H]2CN(c3nc(OC4CCOCC4)ncc3F)C[C@@H]12` [Example 305, (E)-N-(2-((1R,5S,6s)-3-(5-fluoro-2-((tetrahydro-2H-pyran-4-yl)oxy)pyrimidin-4-yl)-3-azabicyclo[3.1.0]hexan-6-yl)ethyl)-3-(pyridin-3-yl)acrylamide], the IC50 is below 0.01 µM.

`O=C(/C=C/c1cccnc1)NCC[C@@H]1[C@H]2CN(c3nc(Oc4ccccc4)ncc3F)C[C@@H]12` [Example 306, (E)-N-(2-((1R,5S,6s)-3-(5-fluoro-2-phenoxypyrimidin-4-yl)-3-azabicyclo[3.1.0]hexan-6-yl)ethyl)-3-(pyridin-3-yl)acrylamide]: the IC50 was in the range of 0.01 to 0.49 µM.

With `Cc1cc(N2C[C@@H]3[C@@H](CCNC(=O)/C=C/c4cccnc4)[C@@H]3C2)cc(C)n1` [Example 307, (E)-N-(2-((1R,5S,6s)-3-(2,6-dimethylpyridin-4-yl)-3-azabicyclo[3.1.0]hexan-6-yl)ethyl)-3-(pyridin-3-yl)acrylamide], the IC50 was in the range of 0.01 to 0.49 µM.

As for `O=C(/C=C/c1cccnc1)NCC[C@@H]1[C@H]2CN(c3nc(OCc4ccccc4)ncc3F)C[C@@H]12` [Example 308, (E)-N-(2-((1R,5S,6s)-3-(2-(benzyloxy)-5-fluoropyrimidin-4-yl)-3-azabicyclo[3.1.0]hexan-6-yl)ethyl)-3-(pyridin-3-yl)acrylamide], the IC50 was below 0.01 µM.

`COC(=O)C(c1ccccc1)N1C[C@@H]2[C@@H](CCNC(=O)/C=C/c3cccnc3)[C@@H]2C1` (stereo partly drawn) [Example 309, methyl 2-phenyl-2-((1R,5S,6s)-6-(2-((E)-3-(pyridin-3-yl)acrylamido)ethyl)-3-azabicyclo[3.1.0]hexan-3-yl)acetate]: the IC50 is below 0.01 µM.

Regarding `O=C(/C=C/c1cccnc1)NCC[C@@H]1[C@H]2CN(c3ccnc(OC4CCOCC4)c3)C[C@@H]12` [Example 310, (E)-3-(Pyridin-3-yl)-N-(2-((1R,5S,6s)-3-(2-((tetrahydro-2H-pyran-4-yl)oxy)pyridin-4-yl)-3-azabicyclo[3.1.0]hexan-6-yl)ethyl)acrylamide], the IC50 lay in the range of 0.01 to 0.49 µM.

For the compound `CN(C)CCOc1ncc(F)c(N2C[C@@H]3[C@@H](CCNC(=O)/C=C/c4cccnc4)[C@@H]3C2)n1` [Example 311, (E)-N-(2-((1R,5S,6s)-3-(2-(2-(dimethylamino)ethoxy)-5-fluoropyrimidin-4-yl)-3-azabicyclo[3.1.0]hexan-6-yl)ethyl)-3-(pyridin-3-yl)acrylamide], the IC50 was below 0.01 µM.

As to `Nc1ncc(F)c(N2C[C@@H]3[C@@H](CCNC(=O)/C=C/c4cccnc4)[C@@H]3C2)n1` [Example 312, (E)-N-(2-((1R,5S,6s)-3-(2-amino-5-fluoropyrimidin-4-yl)-3-azabicyclo[3.1.0]hexan-6-yl)ethyl)-3-(pyridin-3-yl)acrylamide], the IC50 is below 0.01 µM.

As to `COc1ncc(F)c(N2C[C@@H]3[C@@H](CCNC(=O)/C=C/c4ccc(F)nc4)[C@@H]3C2)n1` [Example 313, (E)-N-(2-((1R,5S,6s)-3-(5-fluoro-2-methoxypyrimidin-4-yl)-3-azabicyclo[3.1.0]hexan-6-yl)ethyl)-3-(6-fluoropyridin-3-yl)acrylamide], the IC50 is below 0.01 µM.

Regarding `O=C(/C=C/c1cccnc1)NCC[C@@H]1[C@H]2CN(c3nc(OCCO)ncc3F)C[C@@H]12` [Example 314, (E)-N-(2-((1R,5S,6s)-3-(5-fluoro-2-(2-hydroxyethoxy)pyrimidin-4-yl)-3-azabicyclo[3.1.0]hexan-6-yl)ethyl)-3-(pyridin-3-yl)acrylamide], the concentration for half-maximal inhibition (IC50) lay within 0.01 to 0.49 µM.

The values are drawn from patent publication US12421210B2, “Fused bicyclic heterocycles as therapeutic agents” (NEW YORK UNIVERSITY, priority 2018, dated 2025).
